Assay results: patent US12594268B2, “Methods of treating Fabry disease in patients having a mutation in the GLA gene” (Amicus Therapeutics, Inc., priority 2018, dated 2026)
Residue numbers refer to the chain shown, from its start.

Tests used:
Format in all cases: cell-based
α-Gal A mutant form G35A = target: T1, α-Gal A mutant form G35A (Homo sapiens, UniProt P06280, G35A); test: α-Gal A activity in lysates of transfected HEK-293 cells, G35A
T1 construct: expressed in transfected cells; host or cells: HEK-293
T1 sequence (P06280 32-429 G35A): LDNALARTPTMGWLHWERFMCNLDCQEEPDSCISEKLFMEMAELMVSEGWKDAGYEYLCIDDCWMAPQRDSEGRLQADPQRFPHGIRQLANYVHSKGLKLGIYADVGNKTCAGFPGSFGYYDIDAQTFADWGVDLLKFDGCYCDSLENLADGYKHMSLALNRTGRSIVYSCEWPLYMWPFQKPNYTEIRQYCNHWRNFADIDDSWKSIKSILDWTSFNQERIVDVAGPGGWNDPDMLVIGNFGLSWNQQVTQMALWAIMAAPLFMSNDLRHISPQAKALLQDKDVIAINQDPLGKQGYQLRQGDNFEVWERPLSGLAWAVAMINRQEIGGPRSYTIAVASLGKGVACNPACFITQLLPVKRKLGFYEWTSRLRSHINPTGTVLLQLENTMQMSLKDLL
Procedure: (§1) Baseline and 10 μM migalastat α-Gal A activity: Differences in the α-Gal A activity between lysates incubated in the absence and presence of 10 μM migalastat were determined using a one-tailed, Mann Whitney U test; an increase at 10 μM migalastat with a p<0.05 was considered significant.
(§2) 10 μM migalastat α-Gal A activity (% WT)=(α-Gal A activity in mutant transfected cell lysates incubated with 10 μM migalastat÷α-Gal A activity in wild-type transfected cell lysates without migalastat)*100.
(§3) Absolute increase (% WT)=is the 10 μM migalastat α-Gal A activity (% WT) minus the baseline α-Gal A activity (% WT).
(§4) Relative increase is the 10 μM migalastat α-Gal A activity in mutant transfected cell lysates÷baseline α-Gal A activity in mutant transfected cell lysates incubated without migalastat.

[1] = target: T2, α-Gal A mutant form E338V (Homo sapiens, UniProt P06280, E338V); test: α-Gal A activity in lysates of transfected HEK-293 cells, E338V
T2 construct: expressed in transfected cells; host or cells: HEK-293
T2 sequence (P06280 32-429 E338V): T1 sequence (P06280 32-429 G35A) with A4G, E307V
Procedure: as §1, §2, §3, §4

[2] = target: T3, α-Gal A mutant form D155E (Homo sapiens, UniProt P06280, D155E); test: α-Gal A activity in lysates of transfected HEK-293 cells, D155E
T3 construct: expressed in transfected cells; host or cells: HEK-293
T3 sequence (P06280 32-429 D155E): T1 sequence (P06280 32-429 G35A) with A4G, D124E
Procedure: as §1, §2, §3, §4

[3] = target: T4, α-Gal A mutant form I239M (Homo sapiens, UniProt P06280, I239M); test: α-Gal A activity in lysates of transfected HEK-293 cells, I239M
T4 construct: expressed in transfected cells; host or cells: HEK-293
T4 sequence (P06280 32-429 I239M): T1 sequence (P06280 32-429 G35A) with A4G, I208M
Procedure: as §1, §2, §3, §4

[4] = target: T5, α-Gal A mutant form Y152D (Homo sapiens, UniProt P06280, Y152D); test: α-Gal A activity in lysates of transfected HEK-293 cells, Y152D
T5 construct: expressed in transfected cells; host or cells: HEK-293
T5 sequence (P06280 32-429 Y152D): T1 sequence (P06280 32-429 G35A) with A4G, Y121D
Procedure: as §1, §2, §3, §4

[5] = 10 μM migalastat minus baseline
[6] = 10 μM migalastat ÷ baseline activity
[7] = HEK-293 lysates, 10 μM migalastat, 5 days, mean ± SEM

Absolute increase (% WT) (α-Gal A mutant form G35A; [5]): 31.0 % WT
Relative increase (α-Gal A mutant form G35A; [6]): 1.61
10 nM migalastat α-Gal A activity (α-Gal A mutant form G35A; HEK-293 lysates, 10 nM migalastat as printed, 5 days, mean ± SEM): 31694 ± 1949 nmol/mg/h
10 μM migalastat α-Gal A activity (% WT) (α-Gal A mutant form G35A; [7]): 82.1 ±5.6 % WT
Absolute increase (% WT) [1, 5]: 24.7 % WT
Relative increase [1, 6]: 1.83
10 μM migalastat α-Gal A activity [1, 7]: 21807 ± 845 nmol/mg/h
10 μM migalastat α-Gal A activity (% WT) [1, 7]: 54.8 ± 2.2 % WT
Absolute increase (% WT) [2, 5]: 14.5 % WT
Relative increase [2, 6]: 3.81
10 μM migalastat α-Gal A activity [2, 7]: 6619 ± 337 nmol/mg/h
10 μM migalastat α-Gal A activity (% WT) [2, 7]: 19.8 ± 1.0 % WT
Absolute increase (% WT) [3, 5]: 55.5 % WT
Relative increase [3, 6]: 5.12
10 μM migalastat α-Gal A activity [3, 7]: 24827 ± 3056 nmol/mg/h
10 μM migalastat α-Gal A activity (% WT) [3, 7]: 69.3 ± 6.9 % WT
Absolute increase (% WT) [4, 5]: 10.7 % WT
Relative increase [4, 6]: 2.75
10 μM migalastat α-Gal A activity [4, 7]: 6594 ± 294 nmol/mg/h
10 μM migalastat α-Gal A activity (% WT) [4, 7]: 16.7 ± 1.1 % WT
Structure (SMILES): OC[C@H]1NC[C@H](O)[C@@H](O)[C@H]1O [migalastat, (2R,3S,4R,5S)-2-(hydroxymethyl) piperdine-3,4,5-triol]
